# Experimental data from patent US20250230193A1, “CYCLIC COMPOUND HAVING SELECTIVE KRAS INHIBITORY EFFECT ON HRAS AND NRAS” (CHUGAI SEIYAKU KABUSHIKI KAISHA, priority 2022, published 2025).
# *1 amine or outer side, *2 acyl side, *3 side chain or, on linkers, in order; H or OH if unused. Where a SMILES comes first, the peptide text is derived from it. Bridges are numbered along the chain shown (N, C = ends). [ ]: non-standard residue; d: D form. The star is where a group is joined. hPhe(3-Cl-4-CF3) = N[C@@H](CCc1ccc(C(F)(F)F)c(Cl)c1)C(=O)O; X22 = CCCN([C@@H](COC1CCC1)C(=O)[*:2])[*:1]; NMeGly(cPent) = CN[C@H](C(=O)O)C1CCCC1; NMeD = CN[C@@H](CC(=O)O)C(=O)O; NMeL = CN[C@@H](CC(C)C)C(=O)O; Morpholide = C1CN(*)CCO1; Ac4c = NC1(C(=O)O)CCC1; Sar = CNCC(=O)O
# Experiments:
# [1] = molecular target: GDP-bound HRAS wild-type protein (Homo sapiens, UniProt P01112); experiment: Binding to HRAS by surface plasmon resonance (SPR), Single Cycle Kinetics; details: for HRAS/KRAS (ratio of KD value with respect to GDP-bound HRAS wild-type protein to KD value with respect to KRAS): class symbols
# Sequence of GDP-bound HRAS wild-type protein (P01112 whole entry): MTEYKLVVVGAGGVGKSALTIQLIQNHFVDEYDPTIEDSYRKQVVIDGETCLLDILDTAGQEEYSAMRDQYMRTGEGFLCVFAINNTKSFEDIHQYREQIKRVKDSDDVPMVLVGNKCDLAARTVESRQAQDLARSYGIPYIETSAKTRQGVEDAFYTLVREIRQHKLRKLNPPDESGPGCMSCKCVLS
# [2] = molecular target: GDP-bound NRAS wild-type protein (Homo sapiens, UniProt P01111); experiment: Binding to NRAS by surface plasmon resonance (SPR), Single Cycle Kinetics; details: for NRAS/KRAS (ratio of KD value with respect to GDP-bound NRAS wild-type protein to KD value with respect to KRAS): class symbols
# Sequence of GDP-bound NRAS wild-type protein (P01111 whole entry): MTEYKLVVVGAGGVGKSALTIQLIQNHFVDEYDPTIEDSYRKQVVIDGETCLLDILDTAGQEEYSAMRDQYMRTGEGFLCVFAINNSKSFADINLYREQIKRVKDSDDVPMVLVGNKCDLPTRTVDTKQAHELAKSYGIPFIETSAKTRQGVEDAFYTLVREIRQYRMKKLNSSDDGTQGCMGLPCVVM
# [3] = GDP-bound HRAS wild-type vs GDP-bound KRAS wild-type, SPR
# [4] = GDP-bound NRAS wild-type vs GDP-bound KRAS wild-type, SPR
compound,measurement,setting,value
CCC(CC)[C@H]1C(=O)N(C)[C@H](C(=O)N(C)C)CC(=O)N(C)[C@@H](COC)C(=O)N[C@@H]([C@@H](C)CC)C(=O)N(C)CC(=O)N(C)[C@H]2C/C=C\CCN(C2=O)[C@@H](Cc2ccc(C)cc2)C(=O)N(C)CC(=O)N[C@@H](CCc2cc(F)c(C(F)(F)F)c(F)c2)C(=O)N2CCCC[C@H]2C(=O)NC2(CC(C)(C)C2)C(=O)N1C [PP2922],HRAS/KRAS (ratio of KD value with respect to GDP-bound HRAS wild-type protein to KD value with respect to KRAS),[1],A (a compound having 10 or more and less than 20 is denoted as A)
same,NRAS/KRAS (ratio of KD value with respect to GDP-bound NRAS wild-type protein to KD value with respect to KRAS),[2],AA (a compound having 20 or more is denoted as AA)
CCO[C@@H]1C[C@H]2C(=O)NC(C)(C)C(=O)N(C)[C@@H](C3CCCC3)C(=O)N(C)[C@H](C(=O)N(C)CC)CC(=O)N(C)[C@@H](CC(C)C)C(=O)N[C@@H]([C@@H](C)CC)C(=O)N(C)CC(=O)N(C)[C@H]3C/C=C\CCN(C3=O)[C@@H](Cc3ccc(C(F)(F)F)cc3)C(=O)N(C)CC(=O)N[C@@H](CCc3cc(F)c(C(F)(F)F)c(F)c3)C(=O)N2C1 [PP1937],HRAS/KRAS (ratio of KD value for HRAS to KD value for KRAS),[1]; [3],A (a compound having 10 or more and less than 20 is denoted as A)
same,NRAS/KRAS (ratio of KD value for NRAS to KD value for KRAS),[2]; [4],A (a compound having 10 or more and less than 20 is denoted as A)
CCC[C@H]1C(=O)N[C@@H]([C@@H](C)CC)C(=O)N(C)CC(=O)N(C)[C@H]2C/C=C\CCN(C2=O)[C@@H](Cc2ccc(C)cc2)C(=O)N(C)CC(=O)N[C@@H](CCc2cc(Cl)c3c(ccn3C)c2)C(=O)N2C[C@H](OCC)C[C@H]2C(=O)NC2(CC(C)(C)C2)C(=O)N(C)[C@@H](C2CCCC2)C(=O)N(C)[C@H](C(=O)N(C)C)CC(=O)N1C [PP2951],HRAS/KRAS (ratio of KD value with respect to GDP-bound HRAS wild-type protein to KD value with respect to KRAS),[1],A (a compound having 10 or more and less than 20 is denoted as A)
same,NRAS/KRAS (ratio of KD value with respect to GDP-bound NRAS wild-type protein to KD value with respect to KRAS),[2],A (a compound having 10 or more and less than 20 is denoted as A)
CCCN(C)C(=O)[C@@H]1CC(=O)N(C)[C@@H](COC)C(=O)N[C@@H]([C@@H](C)CC)C(=O)N(C)CC(=O)N(C)[C@H]2C/C=C\CCN(C2=O)[C@@H](Cc2ccc(C(F)(F)F)cc2)C(=O)N(C)CC(=O)N[C@@H](CCc2ccc(C(F)(F)F)c(OC)c2)C(=O)N2C[C@H](OCC)C[C@H]2C(=O)NC2(CC(C)(C)C2)C(=O)N(C)[C@@H](C2CCCC2)C(=O)N1C [PP1656],HRAS/KRAS (ratio of KD value for HRAS to KD value for KRAS),[1]; [3],A (a compound having 10 or more and less than 20 is denoted as A)
same,NRAS/KRAS (ratio of KD value for NRAS to KD value for KRAS),[2]; [4],AA (a compound having 20 or more is denoted as AA)
CCCN1C(=O)CN(C)C(=O)CN(C)C(=O)[C@H]([C@@H](C)CC)NC(=O)[C@H](CC(C)C)N(C)C(=O)C[C@@H](C(=O)N2CCOCC2)N(C)C(=O)[C@H](C2CCCC2)N(C)C(=O)C2(CCC2)NC(=O)[C@@H]2CCCN2C(=O)[C@H](CCc2ccc(C(F)(F)F)c(Cl)c2)NC(=O)CN(C)C(=O)[C@@H]1COC1CCC1 [PP1816] ([NMeL]I[Sar][Sar][X22][Sar][hPhe(3-Cl-4-CF3)]P[Ac4c][NMeGly(cPent)][NMeD]-Morpholide; lactam N-11),HRAS/KRAS (ratio of KD value for HRAS to KD value for KRAS),[1]; [3],C (A compound having a KD ratio of 0.1 or more and less than 3 is denoted as C)
same,NRAS/KRAS (ratio of KD value for NRAS to KD value for KRAS),[2]; [4],B (a compound having 3 or more and less than 10 is denoted as B)
C=CCN1CC(=O)N(C)[C@H]2C/C=C\CCN(C2=O)[C@@H](Cc2ccc(C)cc2)C(=O)N(C)CC(=O)N[C@@H](CCc2ccc(C(F)(F)F)c(OC)c2)C(=O)N2C[C@H](OCC)C[C@H]2C(=O)NC2(CC(C)(C)C2)C(=O)N(C)[C@@H](C2CCCC2)C(=O)N(C)[C@H](C(=O)N(C)C)CC(=O)N(C)[C@@H](CC(C)C)C(=O)N[C@@H]([C@@H](C)CC)C1=O [PP2058],HRAS/KRAS (ratio of KD value with respect to HRAS to KD value with respect to KRAS),"[1]; SPR, GDP-bound HRAS wild-type vs GDP-bound KRAS wild-type",A (a compound having 10 or more and less than 20 is denoted as A)
same,NRAS/KRAS (ratio of KD value with respect to NRAS to KD value with respect to KRAS),"[2]; SPR, GDP-bound NRAS wild-type vs GDP-bound KRAS wild-type",A (a compound having 10 or more and less than 20 is denoted as A)
CCC[C@H]1C(=O)N[C@@H]([C@@H](C)CC)C(=O)N(C2CC2)CC(=O)N(C)[C@H]2C/C=C\CCN(C2=O)[C@@H](Cc2ccc(C)cc2)C(=O)N(C)CC(=O)N[C@@H](CCc2ccc(Cl)c(Cl)c2)C(=O)N2C[C@H](OCC)C[C@H]2C(=O)NC2(CC(C)(C)C2)C(=O)N(C)[C@@H](CC(C)(C)C)C(=O)N(C)[C@H](C(=O)N(C)C)CC(=O)N1C [PP2726],HRAS/KRAS (ratio of KD value with respect to GDP-bound HRAS wild-type protein to KD value with respect to KRAS),[1],A (a compound having 10 or more and less than 20 is denoted as A)
same,NRAS/KRAS (ratio of KD value with respect to GDP-bound NRAS wild-type protein to KD value with respect to KRAS),[2],AA (a compound having 20 or more is denoted as AA)
